According to PMC3923439, “Anti-inflammatory properties of a novel peptide interleukin 1 receptor antagonist” (Journal of Neuroinflammation, 2014):
Positions of bridges follow the written chain, without caps; N, C: chain ends. Chains are numbered I, II in the order given. No end group written: not given here.

Tests used:
[1] = system: Cerebellar granule neurons; experiment: Survival of cerebellar granule neurons induced to undergo apoptosis by low potassium; type: cell-based, rat; conditions: 5 mM KCl, survival estimated 48 hours later
Protocol: (§1) Cerebellar granule neurons (CGNs) were prepared from 7-day-old Wistar rats (from Charles River Laboratories, Sulzfeld, Germany; or from Hygind Møllegård Erik Møllegaard Hansen, Ejby, Denmark) as previously described. Briefly, the cerebella were cleared of meninges and blood vessels, roughly homogenized by chopping and trypsinized. The cells were washed in the presence of DNAse I and soybean trypsin inhibitor (Sigma-Aldrich, St Louis, MO, USA), and cellular debris was pelleted by centrifugation. The fibroblastoid mouse cell line L929 (LVN; European Collection of Cell Cultures, Porton Down, UK) was routinely grown at 37°C with 5% CO2 in DMEM supplemented with 10% (vol/vol) FCS, 2 mM GlutaMAX, 100 U/ml penicillin and 100 μg/ml streptomycin.
(§2) Cerebellar granule neurons were plated at a density of 1 × 10^5 cells/cm^2 on poly-L-lysine-coated, eight-well Permanox Lab-Tek chamber slides (Nunc) in Neurobasal-A medium supplemented with 2% (vol/vol) B27 (Gibco BRL), 0.5% (vol/vol) GlutaMAX, 100 U/ml penicillin and 100 μg/ml streptomycin. The CGN survival assay was performed as previously described. The neurite outgrowth assay was also performed as previously described.
Figure 5 Effect of Ilantide and interleukin 1 receptor antagonist on survival of cerebellar granule neurons induced to undergo apoptosis. The neurons were allowed to differentiate for 7 days in a high-potassium (40 mM) medium before apoptosis was induced by changing to a low-potassium medium (5 mM). Survival was estimated 48 hours later. (A) The effect of insulin-like growth factor 1 (IGF-1), interleukin 1 receptor antagonist (IL-1Ra) and IL-1β on cerebellar granule neuron (CGN) apoptosis induced by 5 mM KCl. (B) The effect of Ilantide-m on CGN apoptosis induced by 5 mM KCl. […] The results from at least four independent experiments are expressed as mean ± SEM with untreated cultures induced to undergo apoptosis by 5 mM KCl set at 100%. *P < 0.05 and **P < 0.01 compared with untreated cultures induced to undergo apoptosis (one-way analysis of variance followed by Newman-Keuls post hoc test).

[2] = system: Cerebellar granule neurons; experiment: Neurite outgrowth from cerebellar granule neurons; type: cell-based, rat; conditions: 7-day-old CGNs grown on fibroblast cells, 24 hours
Protocol: as §1, §2
Figure 6 Effect of Ilantide on neurite outgrowth from cerebellar granule neurons. Cerebellar granule neuron cultures were treated with interleukin 1 receptor antagonist (IL-1Ra) (A), soluble interleukin 1 receptor type I (sIL-1RI) (B), Ilantide-t (C) or IL-1β (D) for 24 hours. The cultures were fixed and immunostained with rabbit anti-rat growth-associated protein 43 (anti-GAP-43) primary antibodies and then with secondary Alexa Fluor 488 goat anti-rabbit antibodies. (E) Effect of IL-1β on neurite outgrowth induced by IL-1Ra. (F) Effect of IL-1β on neurite outgrowth induced by Ilantide-t. The results from three to four independent experiments are expressed as percentage ± SEM with untreated controls set at 100%, corresponding to an average neurite length of 19.3 ± 4.1 μm. *P < 0.05 and **P < 0.01 compared with untreated controls (A to D) or cultures treated with either IL-1Ra or Ilantide alone (E and F) by one-way analysis of variance followed by the Newman-Keuls post hoc test).

[3] = system: double-Ig module (Ig1-Ig2) of NCAM; experiment: Surface plasmon resonance, negative control protein; type: binding; conditions: SPR
Protocol: The binding analysis was performed using a Biacore 2000 instrument (GE Healthcare Life Sciences) that contained 150 mM NaCl as running buffer at 25°C with 10 mM sodium phosphate (pH 7.4). The flow rate was 5 μl/min during immobilization. Ilantide peptide, IL-1β or IL-1Ra was immobilized on a CM4 sensor chip according to the manufacturer’s instructions, after which the recombinant ectodomain of IL-1RI (R&D Systems) was injected. The neural cell adhesion molecule (NCAM) immunoglobulin modules 1 and 2 (Ig1 and Ig2) were used as a negative control protein [9]. The data were analyzed using nonlinear curve-fitting with the manufacturer’s software.

[4] = system: HEK-Blue IL-1β cells (IL-1RI / NF-κB); experiment: IL-1β-induced NF-κB activation, SEAP reporter; type: cell-based; conditions: 1.2 pM IL-1β, 24 hours, SEAP read at 600 nm, four independent experiments
Protocol: HEK-Blue IL-1β cells that contained an IL-1β-sensitive reporter (InvivoGen, San Diego, CA, USA) and HEK-Blue IL-6 cells that contained an IL-6-sensitive reporter (InvivoGen) were grown at 37°C with 5% CO2 in Dulbecco’s modified Eagle’s medium (DMEM) supplemented with 5% (vol/vol) fetal calf serum (FCS), 4.5 g/L glucose, 2 mM GlutaMAX medium, 100 U/ml penicillin, 100 μg/ml streptomycin (all obtained from Gibco BRL/Life Technologies, Taastrup, Denmark), 100 μg/ml zeocin, 200 μg/ml hygromycin and 100 μg/ml Normocin (all purchased from InvivoGen).
HEK-Blue IL-1β cells allow the monitoring of the activation of the NF-κB pathway specifically in response to IL-1β. They express a NF-κB-inducible secreted embryonic alkaline phosphatase (SEAP) reporter gene. The binding of IL-1β to its receptor IL-1RI on the surface of HEK-Blue IL-1β cells triggers a signaling cascade that leads to the activation NF-κB and the subsequent production of SEAP. HEK-Blue IL-1β cells were grown as described above. The cells were seeded onto a 96-well plate at a density 3.5 × 10^5 cells/ml. For the NF-κB activation assay, the cells were treated with 1.2 pM IL-1β alone or together with sIL-1RI, IL-1Ra or various concentrations of Ilantide. After 24 hours of incubation at 37°C, 150 μl of the cell supernatants were added to each well of a 96-well plate together with 50 μl of QUANTI-Blue (InvivoGen), incubated at 37°C for 40 minutes and measured in an enzyme-linked immunosorbent assay (ELISA) reader at 600 nm to determine the expression levels of reporter genes activated by NF-κB.

Substance | CGN survival after potassium withdrawal [1] | Neurite outgrowth from CGNs [2] | Binding to double-Ig module of NCAM (negative control) [3] | Inhibition of NF-κB activation induced by IL-1β [4]
I: SGRKSSKMQAKK-NH2 / II: SGRKSSKMQAK / III: SGRKSSKMQA / IV: SGRKSSKMQA (amide I:11-IV:C, I:12-II:C, II:11-III:C; C-terminus assumed) [Ilantide-t] | concentration-dependently promoted CGN survival | significantly induced neurite outgrowth | no significant binding | dose-dependently inhibited
IL-1Ra: recombinant interleukin 1 receptor antagonist purchased from R&D Systems | concentration-dependently promoted CGN survival | significantly induced neurite outgrowth | no significant binding | dose-dependently inhibited
